For 12 compounds, IC50 results are on record in patent US11358952B2, “Substituted 4-aminoisoindoline-1,3-dione compounds, compositions thereof, and methods of treatment therewith” (Celgene Corporation, priority 2018, dated 2022).

The experiment deals with SU-DHL-4 cell line. As to the kind of experiment: SU-DHL-4 cell proliferation assay (Cell Titer-Glo viability). The format is cell-based. The conditions noted are these: Homo sapiens; cell viability IC50 activity level, DLBCL cell line SU-DHL-4, 120 hours post-treatment; read-out: SU-DHL-4 Act. On the procedure:
SU-DHL-4 Cell Proliferation Assay.
The following is an example of an assay that can be used to determine the anti-proliferative activity of Isoindolinedione Compounds in a DLBCL cell line, for example, the SU-DHL-4 cell line (Deutsche Sammlung von Mikroorganismen and Zellkulturen GmbH [DSMZ]: catalogue number ACC-495) at 120 hours post-treatment. The seeding density for SU-DHL-4 can be optimized to ensure assay linearity in 1536-well plates.
Increasing concentrations of test compounds (0.5 nM to 10 μM) were spotted in a 20-point dilution fashion (unevenly spaced data points) via an acoustic dispenser (EDC ATS-100) into an empty 1536-well plate. The DMSO concentration was kept constant for a final assay concentration of 0.1% DMSO. Prior to testing, SU-DHL-4 cells were grown in RPMI-1640 (Roswell Park Memorial Institute—1640) medium with 10% FBS (fetal bovine serum: HyClone) and expanded in culture flasks to provide sufficient amounts of starting material. Cells were then diluted to 500 cells per well in a 5 μL volume, and added directly to the compound-spotted 1536-well plates. Cells were allowed to grow for 120 hours in 5% CO2 at 37° C. At the time when exposure of cells to compound began (to), initial viable cell number was assessed via Cell Titer-Glo® Luminescent Cell Viability Assay at a 1 vol:2 vol ratio according to manufacturer's instructions (Promega Corporation, Madison, Wis.) by quantifying the level of luminescence generated by adenosine-5′-triphosphate (ATP) present in viable cells. After 120 hours, cell viability of the treated cells was assessed via Cell Titer-Gb® and read for luminescence. All growth inhibition curves were processed and evaluated using Activity Base (IDBS, Alameda, Calif.). Cell viability IC50 values were calculated using a four parameter logistic model (sigmoidal dose-response model): y=(A+((B−A)/(1+((C/x)^D)))) wherein: A=YMin B=YMax C=EC50 D=Hill slope IC50=the concentration of the compound when Y=50% of DMSO control Y=cell viability measured as luminescence unit, and x=concentration of compound.
For `Cc1cc(C#N)cc(F)c1N1CCN(Cc2ccc(CNc3cccc4c3C(=O)N(C3CCC(=O)NC3=O)C4=O)cc2)CC1` (stereo not drawn) [Cpd 27, 4-(4-(4-((2-(2,6-dioxopiperidin-3-yl)-1,3-dioxoisoindolin-4-ylamino)methyl)benzyl)piperazin-1-yl)-3-fluoro-5-methylbenzonitrile], the IC50 was in the range of 200 to 500 nM.
The same measure for `N#Cc1ccc(N2CCN(Cc3ccc(CNc4cccc5c4C(=O)N(C4CCC(=O)NC4=O)C5=O)cc3)CC2)c(F)c1` (stereo not drawn) [Cpd 28, 4-(4-(4-((2-(2,6-dioxopiperidin-3-yl)-1,3-dioxoisoindolin-4-ylamino)methyl)benzyl)piperazin-1-yl)-3-fluorobenzonitrile]: less than 200 nM; for `N#Cc1ccc(N2CCN(Cc3ccc(CNc4cccc5c4C(=O)N(C4CCC(=O)NC4=O)C5=O)cc3)CC2)nc1` (stereo not drawn) [Cpd 29, 6-(4-(4-((2-(2,6-dioxopiperidin-3-yl)-1,3-dioxoisoindolin-4-ylamino)methyl)benzyl)piperazin-1-yl)nicotinonitrile]: 200 to 500 nM.
The same measure for `O=C1CCC(N2C(=O)c3cccc(NCc4ccc(CN5CCN(c6ncccc6F)CC5)cc4)c3C2=O)C(=O)N1` (stereo not drawn) [Cpd 30, 2-(2,6-dioxopiperidin-3-yl)-4-(4-((4-(3-fluoropyridin-2-yl)piperazin-1-yl)methyl)benzylamino)isoindoline-1,3-dione]: less than 200 nM.
`O=C1CCC(N2C(=O)c3cccc(NCc4ccc(CN5CCC(c6ccccn6)CC5)cc4)c3C2=O)C(=O)N1` (stereo not drawn) [Cpd 31, 2-(2,6-dioxopiperidin-3-yl)-4-(4-((4-(pyridin-2-yl)piperidin-1-yl)methyl)benzylamino)isoindoline-1,3-dione]: the IC50 was 200 to 500 nM.
Regarding `O=C1CCC(N2C(=O)c3cccc(NCc4ccc(CN5CCN(c6ccc(F)cn6)CC5)cc4)c3C2=O)C(=O)N1` (stereo not drawn) [Cpd 32, 2-(2,6-dioxopiperidin-3-yl)-4-(4-((4-(5-fluoropyridin-2-yl)piperazin-1-yl)methyl)benzylamino)isoindoline-1,3-dione], the IC50 lay in the range of 200 to 500 nM.
The same measure for `C[C@@H]1CN(c2ccc(Cl)cc2)CCN1Cc1ccc(CNc2cccc3c2C(=O)N(C2CCC(=O)NC2=O)C3=O)cc1` (stereo partly drawn) [Cpd 33, 4-(4-(((R)-4-(4-chlorophenyl)-2-methylpiperazin-1-yl)methyl)benzylamino)-2-(2,6-dioxopiperidin-3-yl)isoindoline-1,3-dione]: 200 to 500 nM.
Consider `CC1(C)CN(c2ccc(Cl)cc2)CCN1Cc1ccc(CNc2cccc3c2C(=O)N(C2CCC(=O)NC2=O)C3=O)cc1` (stereo not drawn) [Cpd 34, 4-(4-((4-(4-chlorophenyl)-2,2-dimethylpiperazin-1-yl)methyl)benzylamino)-2-(2,6-dioxopiperidin-3-yl)isoindoline-1,3-dione], for which the IC50 lay in the range of 751 to 1000 nM.
As to `COC1CC2CCC(C1)N2Cc1ccc(CNc2cccc3c2C(=O)N(C2CCC(=O)NC2=O)C3=O)cc1` [Cpd 35, 2-(2,6-dioxopiperidin-3-yl)-4-(4-(((1R,3r,5S)-3-methoxy-8-azabicyclo[3.2.1]octan-8-yl)methyl)benzylamino)isoindoline-1,3-dione], the IC50 was in the range of 751 to 1000 nM.
As to `CC1(C)CCN(Cc2ccc(CNc3cccc4c3C(=O)N(C3CCC(=O)NC3=O)C4=O)cc2)CC1` (stereo not drawn) [Cpd 36, 4-(4-((4,4-dimethylpiperidin-1-yl)methyl)benzylamino)-2-(2,6-dioxopiperidin-3-yl)isoindoline-1,3-dione], the IC50 was in the range of 200 to 500 nM.
As for `CC(C)(C)C1CCN(Cc2ccc(CNc3cccc4c3C(=O)N(C3CCC(=O)NC3=O)C4=O)cc2)CC1` (stereo not drawn) [Cpd 37, 4-(4-((4-tert-butylpiperidin-1-yl)methyl)benzylamino)-2-(2,6-dioxopiperidin-3-yl)isoindoline-1,3-dione], the IC50 is less than 200 nM.
The same measure for `CC(C)(C)OC1CCN(Cc2ccc(CNc3cccc4c3C(=O)N(C3CCC(=O)NC3=O)C4=O)cc2)CC1` (stereo not drawn) [Cpd 38, 4-(4-((4-tert-butoxypiperidin-1-yl)methyl)benzylamino)-2-(2,6-dioxopiperidin-3-yl)isoindoline-1,3-dione]: less than 200 nM.
